Consider 2 molecules from US9429582B2, “Tyrosine-phosphorylated WBP2, a novel cancer target and biomarker” (National University of Singapore, priority 2010, dated 2016).

What all share (assay type): cell-based, human
One data set concerns EGFR. The data set is described as follows: EGFR activation (auto-phosphorylation) in EGF-stimulated HeLa (IB). Conditions: 50 ng/ml EGF 5 min, c-Src inhibition, 1 μM AZD0530. The method, then: A: HeLa were co-transfected with EGFR and V5-tagged WT or individual Y→F mutant of WBP2. 24 hr post-transfection, cells were serum-starved and stimulated with 50 ng/ml EGF for 5 min with/without 1 hr pre-treatment with 10 μM Iressa or 1 μM AZD0530. Whole cell lysates were used for IP/IB analysis with antibodies indicated. B: HeLa were co-transfected with EGFR and V5-tagged WT or individual Y→F mutant of WBP2 in the absence or presence of Src-DN overexpression. C: HeLa were co-transfected with (a) WBP2; (b) WBP2 and EGFR; (c) WBP2 and wild-type (WT) Src; (d) WBP2 and constitutively active (CA) Src; (e) WBP2, EGFR and WT-Src; (f) WBP2, EGFR ad CA-Src; (g) Y192-231F, EGFR and WT-Src. For experiments B and C, 24 hr post-transfection, cells were serum-starved overnight and stimulated with 50 ng/ml EGF for 5 min. Whole cell lysates were used for IP/IB analysis with antibodies indicated. D: HeLa were co-transfected with EGFR and V5-tagged WT or individual Y→F mutant of WBP2. 24 hrpost-transfection, cells were serum-starved and stimulated with 50 ng/ml EGF for 5 min with/without 1 hr pre-treatment with 10 μM Iressa or 1 μM AZD0530. Whole cell lysates were used for IP/IB analysis with antibodies indicated. E: HeLa were co-transfected with EGFR and V5-tagged WT or individual Y→F mutant of WBP2 in the absence or presence of Src-DN-K295M overexpression. […]

Another data set relates to WBP2. As to the kind of experiment: EGF-induced WBP2 tyrosine phosphorylation in HeLa (IP/IB). Particulars: HeLa co-transfected with EGFR and WBP2; 50 ng/ml EGF 5 min; 1 hr pre-treatment with 1 μM AZD0530. The method, then:
A: HeLa were co-transfected with EGFR and V5-tagged WT or individual Y→F mutant of WBP2. 24 hr post-transfection, cells were serum-starved and stimulated with 50 ng/ml EGF for 5 min with/without 1 hr pre-treatment with 10 μM Iressa or 1 μM AZD0530. Whole cell lysates were used for IP/IB analysis with antibodies indicated. B: HeLa were co-transfected with EGFR and V5-tagged WT or individual Y→F mutant of WBP2 in the absence or presence of Src-DN overexpression. C: HeLa were co-transfected with (a) WBP2; (b) WBP2 and EGFR; (c) WBP2 and wild-type (WT) Src; (d) WBP2 and constitutively active (CA) Src; (e) WBP2, EGFR and WT-Src; (f) WBP2, EGFR ad CA-Src; (g) Y192-231F, EGFR and WT-Src. For experiments B and C, 24 hr post-transfection, cells were serum-starved overnight and stimulated with 50 ng/ml EGF for 5 min. Whole cell lysates were used for IP/IB analysis with antibodies indicated. D: HeLa were co-transfected with EGFR and V5-tagged WT or individual Y→F mutant of WBP2. 24 hrpost-transfection, cells were serum-starved and stimulated with 50 ng/ml EGF for 5 min with/without 1 hr pre-treatment with 10 μM Iressa or 1 μM AZD0530. Whole cell lysates were used for IP/IB analysis with antibodies indicated. E: HeLa were co-transfected with EGFR and V5-tagged WT or individual Y→F mutant of WBP2 in the absence or presence of Src-DN-K295M overexpression. F: HeLa were cotransfected with (a) WBP2; (b) WBP2 and EGFR; (c) WBP2 and wild-type (WT) Src; (d) WBP2 and constitutively-active (CA) Src-Y529F; (e) WBP2, EGFR and WT-Src; (f) WBP2, EGFR ad CA-Src; (g) Y192-231F, EGFR and WT-Src. For experiments B and C, 24 hr post-transfection, cells were serum-starved overnight and stimulated with 50 ng/ml EGF for 5 min. Whole cell lysates were used for IP/IB analysis with antibodies indicated. G: MCF7 were co-transfected with V5-tagged WBP2 and either negative control siRNA, c-Yes siRNA or c-Src siRNA. For both experiments, 24 hr post-transfection, cells were serum-starved overnight and stimulated with 50 ng/ml EGF for 5 min. Whole cell lysates were used for IP/IB analysis with antibodies indicated. […]

The test system of data set [1] is YAP, ERα, cyclin D1, Wnt3a, pGSKβ, β-catenin, c-Myc, Bcl-2, c-Yes, p16, p21, MMP2. The data set is described as follows: Immunoblot of Y192-231E mutant expressing MCF7 with WBP2 knockdown. Conditions: WBP2 expression silenced in WBP2 Y192-231E stable transfectant. The protocol: A: Whole cell lysates from vector, WBP2-WT, WBP2-Y192-231E mutant and WBP2-Y192-231F mutant expressing MCF7 or Y192-231E mutant expressing MCF7 with WBP2 knockdown were used for IB analysis with antibodies indicated. B: Vector, WBP2-WT, WBP2-Y192-231E mutant or WBP2-Y192-231F mutant-expressing MCF7 were co-transfected with TOPFlash (top panel) or ERE-Luciferase (bottom panel) reporter construct. For cells co-transfected ERE-luciferase, they were either left alone or stimulated with 50 ng/ml Wnt3a ligand for 16 hrs. TCF/ERα luciferase activities in various conditions were then assayed. **P<0.01, ***P<0.001, Student's t-test (2-tailed). […] Cell numbers were measured. […]
Whole cell lysates from vector, WBP2-WT, WBP2-Y192-231E mutant and WBP2-Y192-231F mutant expressing MCF7 (A) or Y192-231E mutant expressing MCF7 with WBP2 knockdown (B) were used for IB analysis with antibodies indicated. Their expression levels were quantified in three independent experiments and the averages were presented relative to actin. […] TCF(C)/ER[…](D) luciferase activities in various conditions were then assayed and analyzed in relative to untreated vector control. **P<0.01, ***P<0.001, Student's t-test (2-tailed). […] Cell numbers were measured daily and compared in relative to vehicle treated vector-expressing cells on Day 0. […] Cell numbers were measured and compared in relative to vehicle-treated cells. […]

As to `CN1CCN(CCOc2cc(OC3CCOCC3)c3c(Nc4c(Cl)ccc5c4OCO5)ncnc3c2)CC1` [AZD0530], the “EGFR activation (EGFR auto-phosphorylation)” value with EGFR was “significant reduction”. In addition, the “EGF-induced tyrosine phosphorylation of WBP2” value in the data set with WBP2 is “abolished”.

For the molecule “5′-AGCAUCCGCUGUCCGAACUCAAUGG-3′ ((5'-AGCAUCCGCUGUCCGAACUCAAUGG-3'; as printed in the source, key not given here) [WBP2 siRNA, small interfering RNA designed to suppress the expression of WBP2]”, in data set [1], the “expression of c-Yes, p16, p21 and active MMP2” value is listed as “remained unchanged”; the “expressions of YAP, ERα, cyclin D1, Wnt3a, pGSKβ, β-catenin, c-Myc” value was “suppressed”.
